Data published in US9365533B2, “Coumarin derivative” (NIPPON ZOKI PHARMACEUTICAL CO., LTD., priority 2012, dated 2016).
Where a name gives a salt, the structure may show the parent alone.

How the values were obtained:
[1] = test system: cartilage pieces of bovine metacarpophalangeal joint; test: Suppressive action to cartilage destruction: release of sGAG induced by IL-1α from cartilage pieces; assay type: cell-based; settings: 25 μmol/L test substance, 2 h pretreatment, human recombinant IL-1α 3 ng/mL, 4 days at 37° C.; for inhibition at 25 µM: Bos taurus, 96 h, read-out: sGAG Releasing Suppressive Rate (%)
Procedure: Evaluation of Suppressive Action to Cartilage Destruction [Release of sGAG Induced by Interleukin-1α (IL-1α)]
(1) Incubation of Cartilage Pieces
Each four cartilage pieces of bovine metacarpophalangeal joint were placed in each well of a 48-well plate and pretreated for 2 hours with a basal medium [D-MEM (Dulbecco's Modified Eagle Medium) containing 2 mmol/L of glutamine, 25 mmol/L of Hepes, 100 μg/mL of streptomycin, 100 IU/mL of penicillin and 5.6 μg/mL of amphotericin B] containing 25 μmol/L of a test substance. Human recombinant IL-1α (3 ng/mL) was added thereto followed by incubating at 37° C. for 4 days in a CO2 incubator set at 5 vol % of CO2. Culture supernatant and cartilage pieces were recovered and stored by freezing until the measurement for each of them.
(2) Measurement of the Amount of sGAG and Calculation of the Suppressive Rate for the Release of sGAG
The recovered cartilage pieces were treated with a papain solution [containing 1 mg/mL of papain, 100 mmol/L of sodium phosphate (pH 6.5), 5 mmol/L of L-cysteine and 5 mmol/L of disodium ethylenediaminetetraacetate (EDTA)] at 65° C. for about 16 hours to solubilize. Amount of sGAG in the resulting extract was measured using an sGAG Alcian Blue Binding Kit (Wieslab AB) which is a quantitative kit to which a Alcian blue staining protocol is applied. sGAG in the culture supernatant after the incubation was measured without subjecting to a papain treatment. Each releasing rate of sGAG was determined by the following formula to calculate the suppressive rate for the release of sGAG. Releasing rate (%) of sGAG={(Total sGAG amount in the culture supernatant)/[(Total sGAG amount in the culture supernatant)+(Total sGAG amount in the cartilage pieces)]}×100 Suppressive rate (%) for release of sGAG={[Releasing rate of sGAG (IL-1α stimulation)−Releasing rate of sGAG (Test substance)]/[Releasing rate of sGAG (IL-1α stimulation)−Releasing rate of sGAG (Non-stimulation)]}×100

HFLS-OA cells = test: Suppressive action to TNF-α-induced proliferation of synovial cells (HFLS-OA), BrdU ELISA; assay type: cell-based; settings: 200 μmol/L test substance, human recombinant TNF-α 10 ng/mL, 5 days, BrdU incorporation increase by TNF-α = 100%; for activity at 200 µM: Synovial cell, 120 h, read-out: Synovial Cell Proliferation Rate (%)
Procedure: Evaluation of Suppressive Action to Cell Proliferation of Synovial Cells (HFLS-OA) Derived from Tissues of Human Osteoarthritis
(1) Incubation of HFLS-OA Cells
HFLS-OA cells were sown onto a 96-well plate so as to make them 10^4 cells/well/100 μL in a D-MEM containing 2 vol % of fetal bovine serum (FBS) and incubated for 24 hours. A test substance (200 μmol/L) and human recombinant TNF-α (10 ng/mL) were added thereto followed by incubating for 5 days.
(2) Measurement of Action to HFLS-OA Cell Proliferation
A kit [Cell Proliferation ELISA, BrdU (colorimetric) (Roche Diagnostics)] was used and measurement was conducted according to the protocol attached to the kit. HFLS-OA cells were incubated for 3 days and 10 μL of 5-bromo-2′-deoxyuridine (BrdU) dissolved in a phosphate buffered saline (PBS) (100 μmol/L, pH 7.4) was added to each well followed by incubating for 48 hours more. After the culture supernatant was removed from each well, 200 μL/well of an immobilization/denaturation solution was added thereto and the mixture was allowed to stand for 30 minutes whereby immobilization of the cells and denaturation of DNA were conducted. After the immobilization/denaturation solution was completely removed, 100 μL of a peroxidase-labeled anti-BrdU antibody solution was added thereto and the mixture was made to react at room temperature for 90 minutes. After washing with PBS, 100 μL of a substrate liquid (tetramethylbenzidine) was added to each well and the absorbance was measured. A cell proliferation rate upon addition of each test substance was calculated where an increase in incorporation of BrdU upon addition of TNF-α was defined as 100% of cell proliferation rate.

O=c1oc2c(OS(=O)(=O)c3ccccc3)cccc2cc1NS(=O)(=O)c1ccc(C(F)(F)F)cc1 [Compound 27, 2-Oxo-3-[[4-(trifluoromethyl)phenyl]sulfonylamino]-chromen-8-yl benzenesulfonate]
inhibition at 25 µM [1]: 162% | activity at 200 µM (HFLS-OA cells): -36.3%

O=c1oc2c(OS(=O)(=O)c3ccccc3)cccc2cc1NS(=O)(=O)c1cccc(C(F)(F)F)c1 [Compound 28, 2-Oxo-3-[[3-(trifluoromethyl)phenyl]sulfonylamino]-chromen-8-yl benzenesulfonate]
inhibition at 25 µM [1]: 140% | activity at 200 µM (HFLS-OA cells): -33.7%

O=c1oc2c(OS(=O)(=O)c3ccccc3)cccc2cc1NS(=O)(=O)c1ccc(Cl)cc1 [Compound 29, 3-[(4-Chlorophenyl)sulfonylamino]-2-oxochromen-8-yl benzenesulfonate]
inhibition at 25 µM [1]: 121% | activity at 200 µM (HFLS-OA cells): -31.3%

O=c1oc2c(OS(=O)(=O)c3ccccc3)cccc2cc1NS(=O)(=O)c1ccc(-c2ccccc2)cc1 [Compound 30, 2-Oxo-3-[(4-phenylphenyl)sulfonylamino]chromen-8-yl benzenesulfonate]
inhibition at 25 µM [1]: 141% | activity at 200 µM (HFLS-OA cells): -33%

O=c1oc2c(OS(=O)(=O)c3ccccc3)cccc2cc1NS(=O)(=O)c1cccc(Br)c1 [Compound 31, 3-[(3-Bromophenyl)sulfonylamino]-2-oxochromen-8-yl benzenesulfonate]
inhibition at 25 µM [1]: 135% | activity at 200 µM (HFLS-OA cells): -37.1%

O=c1oc2c(OS(=O)(=O)c3cccc(Br)c3)cccc2cc1NS(=O)(=O)c1cccc(Br)c1 [Compound 32, 3-[(3-Bromophenyl)sulfonylamino]-2-oxochromen-8-yl 3-bromobenzenesulfonate]
inhibition at 25 µM [1]: 202% | activity at 200 µM (HFLS-OA cells): -41.1%

O=c1oc2c(OS(=O)(=O)c3cccc(C(F)(F)F)c3)cccc2cc1NS(=O)(=O)c1cccc(C(F)(F)F)c1 [Compound 33, 2-Oxo-3-[[3-(trifluoromethyl)phenyl]sulfonylamino]-chromen-8-yl 3-(trifluoromethyl)benzenesulfonate]
inhibition at 25 µM [1]: 147% | activity at 200 µM (HFLS-OA cells): -40%

O=c1oc2c(OS(=O)(=O)c3cccc(Br)c3)cccc2cc1NS(=O)(=O)c1ccccc1 [Compound 34, 3-(Benzenesulfonamide)-2-oxochromen-8-yl 3-bromobenzenesulfonate]
sGAG Releasing Suppressive Rate (%) [1]: 109% | Synovial Cell Proliferation Rate (%) (HFLS-OA cells): −31.6%

O=c1oc2c(OS(=O)(=O)c3cccc(C(F)(F)F)c3)cccc2cc1NS(=O)(=O)c1ccccc1 [Compound 35, 3-(Benzenesulfonamide)-2-oxochromen-8-yl 3-(trifluoromethyl)benzenesulfonate]
sGAG Releasing Suppressive Rate (%) [1]: 103% | Synovial Cell Proliferation Rate (%) (HFLS-OA cells): −31.5%

O=c1oc2c(OS(=O)(=O)c3cccnc3)cccc2cc1NS(=O)(=O)c1cccc(Br)c1 [Compound 36]
sGAG Releasing Suppressive Rate (%) [1]: 30% | Synovial Cell Proliferation Rate (%) (HFLS-OA cells): −33.9%

CS(=O)(=O)Oc1cccc2cc(NS(=O)(=O)c3cccc(Br)c3)c(=O)oc12 [Compound 37, 3-[(3-Bromophenyl)sulfonylamino)]-2-oxochromen-8-yl methanesulfonate]
sGAG Releasing Suppressive Rate (%) [1]: 17% | Synovial Cell Proliferation Rate (%) (HFLS-OA cells): −22.6%

O=c1oc2c(OS(=O)(=O)c3cccc(Br)c3)cccc2cc1NS(=O)(=O)c1cccnc1 [Compound 38, 2-Oxo-3-(3-pyridylsulfonylamino)chromen-8-yl 3-bromobenzenesulfonate]
inhibition at 25 µM [1]: 67% | activity at 200 µM (HFLS-OA cells): -31.2%

O=c1oc2c(OS(=O)(=O)c3ccc([N+](=O)[O-])cc3)cccc2cc1NS(=O)(=O)c1cccc(C(F)(F)F)c1 [Compound 41, 2-Oxo-3-[[3-(trifluoromethyl)phenyl]sulfonylamino]-chromen-8-yl 4-nitrobenzenesulfonate]
inhibition at 25 µM [1]: 172% | activity at 200 µM (HFLS-OA cells): -37.7%

O=c1oc2c(OS(=O)(=O)c3cccc(C(F)(F)F)c3)cccc2cc1NS(=O)(=O)c1ccc([N+](=O)[O-])cc1 [Compound 42, 3-[(4-Nitrophenyl)sulfonylamino]-2-oxochromen-8-yl 3-(trifluoromethyl)benzenesulfonate]
inhibition at 25 µM [1]: 163% | activity at 200 µM (HFLS-OA cells): -35.5%

O=c1oc2c(OS(=O)(=O)c3cccs3)cccc2cc1NS(=O)(=O)c1cccc([N+](=O)[O-])c1 [Compound 43, 3-[(3-Nitrophenyl)sulfonylamino]-2-oxochromen-8-yl thiophene-2-sulfonate]
inhibition at 25 µM [1]: 107% | activity at 200 µM (HFLS-OA cells): -30.3%

O=c1oc2c(OS(=O)(=O)c3cccc([N+](=O)[O-])c3)cccc2cc1NS(=O)(=O)c1cccs1 [Compound 44, 2-Oxo-3-(2-thienylsulfonylamino)chromen-8-yl 3-nitrobenzenesulfonate]
inhibition at 25 µM [1]: 118% | activity at 200 µM (HFLS-OA cells): -31.5%

Nc1ccc(S(=O)(=O)Oc2cccc3cc(NS(=O)(=O)c4cccc(C(F)(F)F)c4)c(=O)oc23)cc1 [Compound 46, 2-Oxo-3-[[3-(trifluoromethyl)phenyl]sulfonylamino]-chromen-8-yl 4-aminobenzenesulfonate hydrochloride]
inhibition at 25 µM [1]: 98% | activity at 200 µM (HFLS-OA cells): -37%

Nc1ccc(S(=O)(=O)Nc2cc3cccc(OS(=O)(=O)c4cccc(C(F)(F)F)c4)c3oc2=O)cc1 [Compound 47, 3-[(4-Aminophenyl)sulfonylamino]-2-oxochromen-8-yl 3-(trifluoromethyl)benzenesulfonate]
inhibition at 25 µM [1]: 69% | activity at 200 µM (HFLS-OA cells): -40.1%

CCOC(=O)c1ccc(S(=O)(=O)Oc2cccc3cc(NS(=O)(=O)c4cccc([N+](=O)[O-])c4)c(=O)oc23)cc1 [Compound 48, Ethyl 4-[3-[(3-nitrophenyl)sulfonylamino]-2-oxochromen-8-yl]oxysulfonylbenzoate]
inhibition at 25 µM [1]: 122% | activity at 200 µM (HFLS-OA cells): -34.9%

O=C(O)c1ccc(S(=O)(=O)Oc2cccc3cc(NS(=O)(=O)c4cccc([N+](=O)[O-])c4)c(=O)oc23)cc1 [Compound 49, 4-[3-[(3-Nitrophenyl)sulfonylamino]-2-oxochromen-8-yl]oxysulfonylbenzoic acid]
inhibition at 25 µM [1]: 38% | activity at 200 µM (HFLS-OA cells): -36.1%

O=c1oc2c(OS(=O)(=O)c3cccc([N+](=O)[O-])c3)cccc2cc1NS(=O)(=O)c1cccc(C(F)(F)F)c1 [Compound 50, 2-Oxo-3-[[3-(trifluoromethyl)phenyl]sulfonylamino]-chromen-8-yl 3-nitrobenzenesulfonate]
inhibition at 25 µM [1]: 163% | activity at 200 µM (HFLS-OA cells): -46.4%

O=c1oc2c(OS(=O)(=O)c3cccc(C(F)(F)F)c3)cccc2cc1NS(=O)(=O)c1cccc([N+](=O)[O-])c1 [Compound 51]
sGAG Releasing Suppressive Rate (%) [1]: 141% | Synovial Cell Proliferation Rate (%) (HFLS-OA cells): −36.5%

O=c1oc2c(OS(=O)(=O)c3cccc(C(F)(F)F)c3)cccc2cc1NS(=O)(=O)c1ccc(-c2ccccc2)cc1 [Compound 52, 2-Oxo-3-[(4-phenylphenyl)sulfonylamino]chromen-8-yl 3-(trifluoromethyl)benzenesulfonate]
inhibition at 25 µM [1]: 126% | activity at 200 µM (HFLS-OA cells): -35.5%

O=c1oc2c(OS(=O)(=O)c3cccc(Br)c3)cccc2cc1NS(=O)(=O)c1ccc(-c2ccccc2)cc1 [Compound 53, 2-Oxo-3-[(4-phenylphenyl)sulfonylamino]chromen-8-yl 3-bromobenzenesulfonate]
inhibition at 25 µM [1]: 131% | activity at 200 µM (HFLS-OA cells): -32.3%
